Source: publication PMC4472559 (Journal of the American Chemical Society, 2015)

Target: transthyretin (TTR^WT) (Homo sapiens, UniProt P02766)
Test: isothermal titration calorimetry
Type: binding

O=S(=O)(F)Oc1ccc(-c2nnc(-c3cc(Cl)c(O)c(Cl)c3)o2)cc1 [compound 4, probe 4]
Kd: 2 nM
